The record followed here is PubChem BioAssay AID687022 (Broad Institute, 2013).

Active and inactive are the calls of the source.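 How the source made its calls: active means Fitted curve of melting temperature shift crosses the 1.0 threshold at or below the sample's highest valid tested concentration; inconclusive means Flat fit with activity 30 to 70, or invalid fit; inactive means Opposite direction, flat within 30, or no crossing.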 A value given as a limit tells only on which side of the number the result lay.

The target in this assay is Fibroblast growth factor 22 (Homo sapiens) (UniProt Q9HCT0). Briefly: binders of human FGF22 protein, dose response, FGF22 synaptogenesis inhibitor project, biophysical, thermal shift, cherry-pick (AID 687022). The note with it: recombinant FGF22 thermal shift, SYPRO orange melting.
Sequence of Fibroblast growth factor 22 (Homo sapiens) (Q9HCT0 whole entry, looked up): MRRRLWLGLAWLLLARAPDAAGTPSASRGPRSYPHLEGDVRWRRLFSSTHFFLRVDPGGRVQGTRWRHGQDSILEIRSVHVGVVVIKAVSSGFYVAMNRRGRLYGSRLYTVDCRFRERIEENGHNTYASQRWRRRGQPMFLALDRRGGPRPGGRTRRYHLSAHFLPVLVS

Take `C[C@@H]1CN([C@@H](C)CO)C(=O)c2cc(NC(=O)Nc3ccc(C(F)(F)F)cc3)ccc2O[C@@H]1CN(C)Cc1ccc(C(=O)O)cc1`: the AbsAC1 (concentration giving Tm-shift threshold 1.0) was 18.1 µM.

In the case of `Oc1cc(O)cc(C=Cc2ccc(O)c(O)c2)c1`, the AbsAC1 (concentration giving Tm-shift threshold 1.0) was 11.9 µM.

Consider `CC(C)Oc1ccc(F)cc1-c1cc(C(=O)NCc2cccs2)[nH]n1`, for which the AbsAC1 (concentration giving Tm-shift threshold 1.0) was 8.55 µM.

`O=S1(=O)N=C(N(Cc2cccs2)c2ccc(O)cc2)c2ccccc21`: the AbsAC1 (concentration giving Tm-shift threshold 1.0) was 1.47 µM.

Take `COc1nsnc1NS(=O)(=O)c1ccc(NC(=S)NC(=O)c2cccnc2)cc1`: the AbsAC1 (concentration giving Tm-shift threshold 1.0) was 8.95 µM.

For the compound `Oc1ccc(/C=N/N=C/c2ccc(O)c(O)c2)cc1O`, the AbsAC1 (concentration giving Tm-shift threshold 1.0) is 2.05 µM.

For `CC(C)C#Cc1cnc2c(c1)C(=O)N([C@@H](C)CO)C[C@@H](C)[C@H](CN(C)C(=O)c1cnccn1)O2`, the AbsAC1 (concentration giving Tm-shift threshold 1.0) was > 38 µM (inactive).

As to `CC(=O)c1c(C)nc(-c2ccc(OCC(=O)Nc3ccc(F)cc3)cc2)n1O`, the AbsAC1 (concentration giving Tm-shift threshold 1.0) was 16.3 µM.

For `O=C(Cc1c[nH]c2ccccc12)N1CCN(S(=O)(=O)c2cccc(Cl)c2Cl)CC1`, the AbsAC1 (concentration giving Tm-shift threshold 1.0) was 13.4 µM.

`COc1ccc([N+](=O)[O-])cc1/C=N/Nc1nn[nH]n1`: the AbsAC1 (concentration giving Tm-shift threshold 1.0) is 6.12 µM.

As for `N#Cc1ccc(NC(=O)Nc2cccc(C#N)c2)cc1`, the AbsAC1 (concentration giving Tm-shift threshold 1.0) is 4.49 µM.

Turning to `C[C@H]1CN([C@@H](C)CO)S(=O)(=O)c2ccc(C3=CCCC3)cc2O[C@H]1CN(C)C(=O)Nc1ccc2c(c1)OCO2`, the AbsAC1 (concentration giving Tm-shift threshold 1.0) was 22.9 µM.

For `C/C(=N\NC(=O)c1ccc(NS(=O)(=O)c2cccs2)cc1)c1cccs1`, the AbsAC1 (concentration giving Tm-shift threshold 1.0) was 3.06 µM.

On to `O=S(=O)(Nc1cccc(-n2cnnn2)c1)c1ccc(Cl)cc1`, for which the AbsAC1 (concentration giving Tm-shift threshold 1.0) was 27.6 µM.

As for `O=C(Nc1ccc(C(=O)O)cc1)Nc1ccc([N+](=O)[O-])cc1`, the AbsAC1 (concentration giving Tm-shift threshold 1.0) was 5.57 µM.

`Cc1[nH]c2ccc(C(=O)OCC(=O)Nc3cccc(S(N)(=O)=O)c3)cc2c1C`: the AbsAC1 (concentration giving Tm-shift threshold 1.0) is 2.86 µM.

On to `O=C(N/N=C/c1c[nH]c2ccccc12)c1cc2ccccc2o1`, for which the AbsAC1 (concentration giving Tm-shift threshold 1.0) is 2.71 µM.

As to `O=[N+]([O-])c1cccc(S(=O)(=O)Nc2ccc(-c3ccc(N4CCCC4)nn3)cc2)c1`, the AbsAC1 (concentration giving Tm-shift threshold 1.0) is 19.1 µM.

`O=C(Nc1ccc(O)cc1)c1cccc(Oc2ccc([N+](=O)[O-])cc2)c1`: the AbsAC1 (concentration giving Tm-shift threshold 1.0) was 4.32 µM.

With `COC(=O)C[C@H]1CC[C@@H]2[C@@H](COc3ccc(NC(=O)Nc4ccc(C#N)cc4)cc3C(=O)N2C)O1`, the AbsAC1 (concentration giving Tm-shift threshold 1.0) is 5.43 µM.

For `O=C(N/N=C/c1c[nH]c2ccc(Br)cc12)C1CC1`, the AbsAC1 (concentration giving Tm-shift threshold 1.0) was 7.7 µM.

On to `O=C(O)c1ccc(NC(=O)c2cccc(S(=O)(=O)Nc3ccc(C(=O)O)cc3)c2)cc1`, for which the AbsAC1 (concentration giving Tm-shift threshold 1.0) is > 5 µM (inactive).

Regarding `COc1cc(NC(=O)C2CCC(CNS(=O)(=O)c3csc(C(N)=O)c3)CC2)cc(OC)c1` (centres undefined), the AbsAC1 (concentration giving Tm-shift threshold 1.0) was 5.8 µM.

As to `O=C(N/N=C/c1ccc(O)c(O)c1)N/N=C/c1ccc(O)c(O)c1`, the AbsAC1 (concentration giving Tm-shift threshold 1.0) was 7.88 µM.

With `CC(=O)Nc1ccc(S(=O)(=O)Nc2nc3ccc([N+](=O)[O-])cc3s2)cc1`, the AbsAC1 (concentration giving Tm-shift threshold 1.0) is 23 µM.

As for `CCOC(=O)c1sc(NC(=O)Nc2ccccc2)cc1C`, the AbsAC1 (concentration giving Tm-shift threshold 1.0) was 10.2 µM.

On to `COc1cc(NC(=O)c2csc(N)n2)cc(C(=O)Nc2cccc(C(F)(F)F)c2)c1`, for which the AbsAC1 (concentration giving Tm-shift threshold 1.0) was 10.3 µM.

For `Cc1nc2ccc(NC(=O)c3ccc(C)c(S(=O)(=O)N4CCOCC4)c3)cc2s1`, the AbsAC1 (concentration giving Tm-shift threshold 1.0) is 25.9 µM.

Turning to `CN1C(=O)c2cc(NC(=O)c3cccc(F)c3)ccc2OC[C@@H]2O[C@H](CC(=O)N3CCc4ccccc4C3)CC[C@@H]21`, the AbsAC1 (concentration giving Tm-shift threshold 1.0) was 17.2 µM.

Turning to `CN1C(=O)c2cc(NC(=O)c3cccc(F)c3)ccc2OC[C@@H]2O[C@H](CC(=O)NCC3CCCCC3)CC[C@@H]21`, the AbsAC1 (concentration giving Tm-shift threshold 1.0) is 16.8 µM.

On to `COc1ccc(C)cc1NS(=O)(=O)c1ccc(NS(=O)(=O)c2ccc(NC(C)=O)cc2)cc1`, for which the AbsAC1 (concentration giving Tm-shift threshold 1.0) was 3.7 µM.

For the compound `O=C(CC(=O)c1ccccc1)Nc1cccc([N+](=O)[O-])c1`, the AbsAC1 (concentration giving Tm-shift threshold 1.0) was 4.49 µM.

Turning to `CN1C(=O)c2cc(NC(=O)c3cccc(F)c3)ccc2OC[C@H]2O[C@@H](CC(=O)N3CCc4ccccc4C3)CC[C@H]21`, the AbsAC1 (concentration giving Tm-shift threshold 1.0) is 18.4 µM.

As for `O=c1c2ccccc2[nH]c2ccc(F)cc12`, the AbsAC1 (concentration giving Tm-shift threshold 1.0) is > 38 µM (inactive).

Regarding `O=C(N/N=C/c1cccc(Oc2ccccc2)c1)c1cccc(O)c1`, the AbsAC1 (concentration giving Tm-shift threshold 1.0) is 3.12 µM.

Regarding `O=C(CN(Cc1ccccc1)S(=O)(=O)c1ccccc1)N/N=C/c1ccccc1C(=O)O`, the AbsAC1 (concentration giving Tm-shift threshold 1.0) was 18.9 µM.

For `COc1cccc(NC(=O)N(C)C[C@@H]2Oc3cc(-c4ccccc4F)ccc3S(=O)(=O)N([C@H](C)CO)C[C@@H]2C)c1`, the AbsAC1 (concentration giving Tm-shift threshold 1.0) was 2.04 µM.

Take `COC(=O)C1=C(CS(=O)(=O)c2cc(OC)ccc2OC)NC(=O)NC1c1ccc(O)c(OC)c1` (centres undefined): the AbsAC1 (concentration giving Tm-shift threshold 1.0) was 3.09 µM.

As to `Cn1ncc2c(Nc3ccc(Cl)c(Cl)c3)ncnc21`, the AbsAC1 (concentration giving Tm-shift threshold 1.0) was 24.9 µM.

Regarding `CCCOC(=O)c1ccc(Oc2cn[nH]c2-c2ccc(O)cc2O)cc1`, the AbsAC1 (concentration giving Tm-shift threshold 1.0) was 18.6 µM.

As for `NC(=O)Nc1ccc(C(=O)OCC(=O)Nc2sccc2C(N)=O)cc1`, the AbsAC1 (concentration giving Tm-shift threshold 1.0) is 23.8 µM.

With `CCOc1cc(C=NNC(=O)c2cccc(S(=O)(=O)N3CCCC3)c2)ccc1O`, the AbsAC1 (concentration giving Tm-shift threshold 1.0) is 6.84 µM.

As to `CC(C)c1ccc(-n2c(O)c(/C=N/NC(=O)c3ccccc3O)c(=O)[nH]c2=S)cc1`, the AbsAC1 (concentration giving Tm-shift threshold 1.0) is 3.91 µM.

Turning to `CN(NC1OC(=O)c2ccccc21)c1ncc(C(F)(F)F)cc1Cl` (centres undefined), the AbsAC1 (concentration giving Tm-shift threshold 1.0) was 29.3 µM.

In the case of `CC(=O)Nc1cccc(NC(=O)c2ccc3[nH]c(C)c(C)c3c2)c1`, the AbsAC1 (concentration giving Tm-shift threshold 1.0) was 5.11 µM.

For the compound `O=C(Nc1ccc(S(=O)(=O)N2CCCC2)cc1)c1ccccc1`, the AbsAC1 (concentration giving Tm-shift threshold 1.0) is 8.57 µM.

As for `COc1cc(NC(=O)c2ccc3c(c2)OCCO3)ccc1NC(=O)c1cccs1`, the AbsAC1 (concentration giving Tm-shift threshold 1.0) was 3.85 µM.

With `C[C@H]1CN([C@@H](C)CO)S(=O)(=O)c2ccc(-c3cccc(F)c3)cc2O[C@H]1CN(C)C(=O)Nc1cc(F)ccc1F`, the AbsAC1 (concentration giving Tm-shift threshold 1.0) was 6.67 µM.

Regarding `O=C(Nc1nnc(C(F)(F)F)s1)c1ccc(Br)s1`, the AbsAC1 (concentration giving Tm-shift threshold 1.0) was 15.6 µM.

For `O=C(N/N=C/c1ccc([N+](=O)[O-])cc1)c1c[nH]c2ccccc12`, the AbsAC1 (concentration giving Tm-shift threshold 1.0) was 20 µM.

As for `CC1CCN(Cc2c(C(=O)N/N=C/c3ccc(OC(C)C)cc3)nnn2-c2nonc2N)CC1`, the AbsAC1 (concentration giving Tm-shift threshold 1.0) is 14 µM.

`O=[N+]([O-])c1ccc2nc(NS(=O)(=O)c3ccccc3[N+](=O)[O-])sc2c1`: the AbsAC1 (concentration giving Tm-shift threshold 1.0) is 6.33 µM.

As to `COc1ccc(S(=O)(=O)N(NC2=NS(=O)(=O)c3ccccc32)C(=O)C(C)C)cc1`, the AbsAC1 (concentration giving Tm-shift threshold 1.0) is > 38 µM (inactive).

For the compound `O=c1c2cc([N+](=O)[O-])cc([N+](=O)[O-])c2[nH]n1-c1ccccc1`, the AbsAC1 (concentration giving Tm-shift threshold 1.0) is 4.84 µM.

Take `Cc1cccc(S(=O)(=O)N2C[C@H](O)COC[C@H]3O[C@H](CC(=O)Nc4ccccc4)CC[C@@H]32)c1`: the AbsAC1 (concentration giving Tm-shift threshold 1.0) is 7.19 µM.

`CN1C(=O)c2cc(NC(=O)c3cccc(F)c3)ccc2OC[C@H]2O[C@@H](CC(=O)NCC3CCCCC3)CC[C@H]21`: the AbsAC1 (concentration giving Tm-shift threshold 1.0) is 22.3 µM.

With `O=C(Nc1ccc(Cl)cc1)N[C@@H]1CC[C@@H](CCNS(=O)(=O)c2ccccc2F)O[C@H]1CO`, the AbsAC1 (concentration giving Tm-shift threshold 1.0) was 5.88 µM.

In the case of `O=C(Nc1ccc(F)cc1)N[C@H]1CC[C@@H](CCn2cc(-c3ccccc3F)nn2)O[C@@H]1CO`, the AbsAC1 (concentration giving Tm-shift threshold 1.0) is 7.38 µM.

As for `O=C(N/N=C/c1c[nH]c2ccccc12)c1cccc(Cl)c1`, the AbsAC1 (concentration giving Tm-shift threshold 1.0) is 2.15 µM.

For the compound `CC(C)c1c(C(=O)N/N=C/c2c[nH]c3ccccc23)nnn1-c1nonc1N`, the AbsAC1 (concentration giving Tm-shift threshold 1.0) was 1.67 µM.

Turning to `NS(=O)(=O)c1cc(C(=O)NC2CCSc3ccccc32)ccc1Cl` (centres undefined), the AbsAC1 (concentration giving Tm-shift threshold 1.0) is 9.54 µM.

On to `COc1ccc(Cc2nnc(NS(=O)(=O)c3ccccc3)s2)cc1`, for which the AbsAC1 (concentration giving Tm-shift threshold 1.0) is > 19.5 µM (inactive).

Turning to `O=C(CN1C(=O)NC(Cc2c[nH]c3ccccc23)C1=O)Nc1ccc(Br)cc1F` (centres undefined), the AbsAC1 (concentration giving Tm-shift threshold 1.0) is 4.93 µM.

With `CCNC(=O)C[C@@H]1CC[C@H]2[C@H](COc3ccc(NC(=O)Nc4ccc(Cl)cc4)cc3C(=O)N2C)O1`, the AbsAC1 (concentration giving Tm-shift threshold 1.0) is 6.25 µM.

As to `O=C(NC1CC1)c1cccc(NC(=O)c2cnn(-c3ccccc3)n2)c1`, the AbsAC1 (concentration giving Tm-shift threshold 1.0) is 11.7 µM.

Turning to `COc1cc(-c2nc(C)c(C(C)=O)n2O)ccc1OCC(=O)Nc1ccc(Cl)cc1`, the AbsAC1 (concentration giving Tm-shift threshold 1.0) was 10.9 µM.

For `O=C(NCC1CC1)c1onc(CSc2ccc(F)cc2)c1C(=O)NCC1CC1`, the AbsAC1 (concentration giving Tm-shift threshold 1.0) was 2.58 µM.

On to `COc1c(O)ccc(/C=C(\C#N)c2nc3ccccc3[nH]2)c1[N+](=O)[O-]`, for which the AbsAC1 (concentration giving Tm-shift threshold 1.0) was 7.61 µM.

In the case of `COc1ccc(S(=O)(=O)Nc2ccc(NC(C)=O)cc2)cc1Cl`, the AbsAC1 (concentration giving Tm-shift threshold 1.0) is 26.6 µM.

`COc1ccc(N(CC(=O)N/N=C/c2ccc(OC)c(OC)c2)S(=O)(=O)c2ccccc2)cc1`: the AbsAC1 (concentration giving Tm-shift threshold 1.0) is 18.5 µM.

`Nc1nonc1-n1nnc(C(=O)N/N=C/c2cccnc2)c1CSc1ccc(Cl)cc1`: the AbsAC1 (concentration giving Tm-shift threshold 1.0) is 3.46 µM.

`Cc1noc(NC(=O)c2cccc(Cl)c2Cl)c1C#N`: the AbsAC1 (concentration giving Tm-shift threshold 1.0) is 32.7 µM.

Take `C[C@@H]1CN([C@H](C)CO)S(=O)(=O)c2ccc(C3=CCCC3)cc2O[C@@H]1CN(C)C(=O)Nc1ccc2c(c1)OCO2`: the AbsAC1 (concentration giving Tm-shift threshold 1.0) is 20.2 µM.

Turning to `COc1cc(/C=N/NC(=O)CCn2c3ccccc3c3ccccc32)ccc1O`, the AbsAC1 (concentration giving Tm-shift threshold 1.0) is 15.9 µM.
